Where two headings read alike, the source gives them in different places. Where no end group is shown, it is not given here.
What was measured:
Experiment in all cases: Direct-binding FRET assay
CREB3 = target: T1, CREB3 (Homo sapiens, UniProt O43889)
T1 construct: made in house
T1 sequence (O43889 150-213 limits assumed): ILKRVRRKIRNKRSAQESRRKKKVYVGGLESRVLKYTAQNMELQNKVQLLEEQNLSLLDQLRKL
Protocol: (§1) The direct binding assay was performed manually in 384-well plates and is similar to a previously described assay. Wells were filled with 20 μL of 1 mM TCEP-HCl. A 4 μM stock of acceptor protein was made fresh in 1 mM TCEP-HCl, and 20 μL was titrated in 2-fold dilutions over the wells. […] The direct-binding FRET data were fit as previously described. Briefly, the Kd of the designed peptide homodimer was experimentally determined and used with previously determined target homodimer Kd values to determine the heterodimer Kd. The homodimer Kd values used for the human bZIPs were from; experiments done by […] et al. used the same protein constructs for the human bZIP proteins, the same buffer conditions, and the same assay. The fitting used a system of ordinary differential equations to describe the concentrations of homo and heterodimers formed by the donor (D) and acceptor (A) as a function of the heterodimer Kd. MATLAB was used to simulate the binding experiment for different Kd values, and the value that gave the best agreement between simulation and experiment was assigned. A minimum 15% change in the donor fluorescence upon titrating the acceptor peptide from 0 to 1000 nM was required for a fit to be attempted. If this minimum was not met, the interaction was classified as “NS” for no signal change. […] These interactions were marked “AS” to indicate anomalous signal. We attributed this to interactions between the peptides, the dyes and the walls of the assay plates at low concentrations. These curves could not be fit, given their unusual shapes at low concentrations of acceptor. For such curves, we removed the first five points and re-fit the data. […] One example of this is increasing concentrations of acceptor causing an increase in donor fluorescence.

ATF5 = target: T2, ATF5 (Homo sapiens, UniProt Q9Y2D1); settings: Kd
T2 construct: made in house
T2 sequence (Q9Y2D1 208-271 limits assumed): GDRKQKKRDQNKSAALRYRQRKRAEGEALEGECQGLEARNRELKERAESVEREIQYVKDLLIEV
Protocol: as §1

JUNB = target: T3, JUNB (Homo sapiens, UniProt P17275); settings: Kd, mean or single
T3 construct: made in house
T3 sequence (P17275 268-331 limits assumed): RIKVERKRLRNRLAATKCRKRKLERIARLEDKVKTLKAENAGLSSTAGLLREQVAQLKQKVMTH
Protocol: as §1

DBP = target: T4, DBP (Homo sapiens, UniProt Q10586); settings: Kd
T4 construct: made in house
T4 sequence (Q10586 255-318 limits assumed): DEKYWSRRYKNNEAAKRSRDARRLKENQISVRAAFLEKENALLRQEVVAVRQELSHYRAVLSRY
Protocol: as §1

BATF2 = target: T5, BATF2 (Homo sapiens, UniProt Q8N1L9); settings: Kd
T5 construct: made in house
T5 sequence (Q8N1L9 17-80 limits assumed): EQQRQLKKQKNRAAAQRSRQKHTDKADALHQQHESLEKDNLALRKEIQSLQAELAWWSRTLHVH
Protocol: as §1

HLF = target: T6, HLF (Homo sapiens, UniProt Q16534)
T6 construct: made in house
T6 sequence (Q16534 225-288 limits assumed): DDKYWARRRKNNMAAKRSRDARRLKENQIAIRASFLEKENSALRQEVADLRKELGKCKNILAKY
Protocol: as §1

BATF3 = target: T7, BATF3 (Homo sapiens, UniProt Q9NR55); settings: Kd, mean or single
T7 construct: made in house
T7 sequence (Q9NR55 35-98 limits assumed): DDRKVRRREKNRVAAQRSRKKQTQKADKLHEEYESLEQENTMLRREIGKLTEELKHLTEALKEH
Protocol: as §1

FOSL1 = target: T8, FOSL1 (Homo sapiens, UniProt P15407)
T8 construct: made in house
T8 sequence (P15407 105-168 limits assumed): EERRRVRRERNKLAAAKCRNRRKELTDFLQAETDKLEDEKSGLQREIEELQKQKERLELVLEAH
Protocol: as §1

ATF2 = target: T9, ATF2 (Homo sapiens, UniProt P15336); settings: Kd, N-terminal rhodamine design, mean or single
T9 construct: made in house
T9 sequence (P15336 352-415 limits assumed): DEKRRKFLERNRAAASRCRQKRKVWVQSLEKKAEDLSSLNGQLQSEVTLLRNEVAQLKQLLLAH
Protocol: as §1

NFIL3 = target: T10, NFIL3 (Homo sapiens, UniProt Q16649)
T10 construct: made in house
T10 sequence (Q16649 73-136 limits assumed): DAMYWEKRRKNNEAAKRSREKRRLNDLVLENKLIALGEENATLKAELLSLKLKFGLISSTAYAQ
Protocol: as §1

[1] = 4°C, C-terminal rhodamine design, mean or single
[2] = 4°C, N-terminal rhodamine design, mean or single
[3] = 23°C, C-terminal rhodamine design, mean or single
[4] = 23°C, N-terminal rhodamine design, mean or single
[5] = 37°C, N-terminal rhodamine design, mean or single
[6] = 4°C, C-terminal fluorescein design as donor, TAMRA target titrated
[7] = 23°C, C-terminal fluorescein design as donor, TAMRA target titrated
[8] = 37°C, C-terminal fluorescein design as donor, TAMRA target titrated
[9] = 37°C, C-terminal rhodamine design, mean or single
[10] = 4°C, C-terminal rhodamine design
[11] = 4°C, N-terminal rhodamine design
[12] = 23°C, C-terminal rhodamine design
[13] = 23°C, N-terminal rhodamine design
[14] = 37°C, C-terminal rhodamine design
[15] = 37°C, N-terminal rhodamine design

Measured: Kd

SIAATLEKEEANLEKMNKKLAAEIESLLKEKDKLESVLNYHE [JUN-d1]
51 nM: JUNB; [14]
2.7 nM: JUNB; [11]
200 to 1000 nM: ATF2; 4°C
1 nM: JUNB; [10]
> 1000 nM: CREB3 | CREB3; [1] | CREB3; [2] | CREB3; [3] | CREB3; [4] | CREB3; [5] | ATF5; [6] | ATF5; [2] | ATF5; [7] | ATF5; [3] | ATF5; [4] | ATF5; [8] | ATF5; [9] | ATF5; [5] | DBP; [6] | DBP; [2] | DBP; [7] | DBP; [4] | DBP; [8] | DBP; [9] | DBP; [5] | BATF2; [6] | BATF2; [2] | BATF2; [7] | BATF2; [3] | BATF2; [4] | BATF2; [8] | BATF2; [9] | BATF2; [5] | HLF | HLF; [6] | HLF; [1] | HLF; [2] | HLF; [7] | HLF; [3] | HLF; [4] | HLF; [8] | HLF; [5] | BATF3; [11] | BATF3; [13] | BATF3; [14] | BATF3; [15] | FOSL1 | FOSL1; [1] | FOSL1; [2] | FOSL1; [3] | FOSL1; [4] | FOSL1; [5] | ATF2; 23°C | ATF2; 37°C | NFIL3 | NFIL3; [6] | NFIL3; [1] | NFIL3; [2] | NFIL3; [7] | NFIL3; [3] | NFIL3; [4] | NFIL3; [8] | NFIL3; [5]
53 nM: JUNB; [13]
850 nM: JUNB; [15]
362 nM: BATF3; [10]
> 5000 nM: ATF5; [1] | DBP; [1] | DBP; [3] | BATF2; [1] | BATF3; [12]
8.4 nM: JUNB; [12]

Source: paper PMC4335062, “Data-Driven Prediction and Design of bZIP Coiled-Coil Interactions” (PLoS Computational Biology, 2015)
